Assay results: DBAASP
Values after ≈ are worked out from the molar mass of the structure shown. Each block holds one compound with its values, some of them ahead of it.

Experiments:
Assay in all cases: ≥ marks a high value that may be exact or a test limit, other limits are often not marked, values filed in µg/mL are converted to µM
[1] = test system: Acinetobacter baumannii ATCC BAA-747
Staphylococcus aureus = test system: Staphylococcus aureus
Staphylococcus aureus MR = test system: Staphylococcus aureus MR
Escherichia coli = test system: Escherichia coli
[2] = test system: Staphylococcus aureus NCTC 10442
[3] = test system: Escherichia coli ATCC 25922
[4] = test system: Pseudomonas aeruginosa ATCC 27853
Acinetobacter baumannii = test system: Acinetobacter baumannii
[5] = test system: Klebsiella pneumoniae ATCC 700603
Klebsiella pneumoniae = test system: Klebsiella pneumoniae
[6] = test system: Listeria monocytogenes DSM 20600
[7] = test system: Micrococcus luteus DSM 20030
Escherichia coli D31 = test system: Escherichia coli D31
[8] = test system: Listeria fleischmannii DSM 24998
Listeria grayi DSM 20601 = test system: Listeria grayi DSM 20601
Streptococcus pneumoniae = test system: Streptococcus pneumoniae
[9] = test system: Escherichia coli ATCC 23716
Saccharomyces cerevisiae = test system: Saccharomyces cerevisiae
Bacillus subtilis SMY = test system: Bacillus subtilis SMY
Pseudomonas putida = test system: Pseudomonas putida
Serratia marcescens = test system: Serratia marcescens
Candida albicans = test system: Candida albicans
Salmonella typhimurium = test system: Salmonella typhimurium
Cryptococcus neoformans = test system: Cryptococcus neoformans
Streptococcus mutans = test system: Streptococcus mutans
Bacillus subtilis = test system: Bacillus subtilis
Enterobacter cloacae = test system: Enterobacter cloacae
Streptococcus pyogenes = test system: Streptococcus pyogenes
Proteus mirabilis = test system: Proteus mirabilis
Shigella boydii = test system: Shigella boydii
Streptococcus agalactiae = test system: Streptococcus agalactiae
Morganella morganii = test system: Morganella morganii
[10] = test system: Micrococcus luteus NBRC 12708
[11] = test system: Stenotrophomonas maltophilia ATCC 13637
[12] = test system: Saccharomyces cerevisiae NBRC 10217
[13] = test system: Bacillus subtilis ATCC 6633
[14] = test system: Staphylococcus aureus ATCC 25923
[15] = test system: Candida albicans ATCC 90112
Enterococcus faecalis = test system: Enterococcus faecalis
[16] = test system: Staphylococcus aureus NBRC 12732
[17] = test system: Micrococcus luteus ATCC 10240
[18] = test system: Escherichia coli NBRC 14237
[19] = test system: Staphylococcus aureus ATCC 29213
[20] = test system: Staphylococcus aureus WKZ-2
[21] = test system: Salmonella enterica subsp. enterica serovar Enteritidis 706 RIVM
[22] = test system: Bacillus licheniformis ATCC 21424
[23] = test system: Pseudomonas aeruginosa PAO1
[24] = test system: Bacillus atrophaeus BM013

MIC [1]: 21.9 µM (≈ 64 µg/mL)
MIC (Staphylococcus aureus): 5.46 µM (≈ 16 µg/mL)
MIC (Staphylococcus aureus MR): 2.73 µM (≈ 8 µg/mL)
MIC (Escherichia coli): 7.73 µM (≈ 22.6 µg/mL)
MIC [2]: 5.46 µM (≈ 16 µg/mL)
MIC [3]: 10.9 µM (≈ 32 µg/mL)
MIC [4]: 43.7 µM (≈ 128 µg/mL)
MIC (Acinetobacter baumannii): 10.9 µM (≈ 32 µg/mL)
MIC [5]: 43.7 µM (≈ 128 µg/mL)
MIC (Klebsiella pneumoniae): 21.9 µM (≈ 64 µg/mL)
SMILES: CC[C@H](C)[C@H](NC(=O)[C@H](CCSC)NC(=O)[C@H](C)NC(=O)[C@@H]1CCCN1C(=O)[C@@H](NC(=O)[C@@H](NC(=O)[C@H](CCCCN)NC(=O)[C@@H](NC(=O)[C@H](CC(C)C)NC(=O)CNC(=O)CNC(=O)[C@H](CC(C)C)NC(=O)[C@@H](N)Cc1ccccc1)[C@@H](C)CC)[C@@H](C)CC)C(C)C)C(=O)N[C@@H](CS)C(=O)N[C@@H](C)C(=O)N[C@H](C(=O)N[C@H](C(=O)N[C@@H](CCCCN)C(=O)N[C@@H](CCCCN)C(=O)N[C@@H](CS)C(=O)N[C@@H](Cc1cnc[nH]1)C(=O)N[C@@H](Cc1cnc[nH]1)C(=O)N[C@@H](Cc1cnc[nH]1)C(=O)N[C@@H](Cc1cnc[nH]1)C(=O)N[C@@H](Cc1cnc[nH]1)C(=O)N[C@@H](Cc1cnc[nH]1)C(=O)O)[C@@H](C)O)C(C)C [FLGGLIKIVPAMICAVTKKCHHHHHH]

MIC [6]: 30 µM (≈ 74.9 µg/mL)
MIC [7]: 0.25 µM (≈ 0.625 µg/mL)
MIC (Escherichia coli D31): 8 µM (≈ 20 µg/mL)
MIC [8]: 30 µM (≈ 74.9 µg/mL)
MIC (Listeria grayi DSM 20601): 8 µM (≈ 20 µg/mL)
SMILES: CC[C@H](C)[C@H](NC(=O)[C@H](C)NC(=O)[C@H](CO)NC(=O)[C@H](CCCCN)NC(=O)[C@@H]1CCCN1C(=O)[C@@H](NC(=O)[C@H](CCCCN)NC(=O)[C@H](CC(C)C)NC(=O)[C@H](CO)NC(=O)[C@H](CC(C)C)NC(=O)[C@H](CCCCN)NC(=O)[C@H](CC(C)C)NC(=O)[C@H](Cc1ccccc1)NC(=O)[C@@H]1CCCN1C(=O)[C@@H](N)Cc1ccccc1)[C@@H](C)CC)C(=O)N[C@@H](CCCCN)C(=O)N[C@@H](CO)C(=O)N[C@@H](C)C(=O)N[C@H](C(=O)N[C@@H](CCCCN)C(=O)N[C@@H](CCCN=C(N)N)C(=O)N[C@@H](CC(C)C)C(N)=O)[C@@H](C)CC [FPFLKLSLKIPKSAIKSAIKRL]

MIC (Streptococcus pneumoniae): 21.7 µM (≈ 32 µg/mL)
MIC [9]: ≥ 173 µM
MIC (Staphylococcus aureus): 21.7 µM (≈ 32 µg/mL)
MIC (Saccharomyces cerevisiae): ≥ 43.3 µM
MIC (Escherichia coli): 21.7 µM (≈ 32 µg/mL)
MIC (Bacillus subtilis SMY): ≥ 173 µM
MIC (Pseudomonas putida): ≥ 43.3 µM
MIC (Serratia marcescens): 21.7 µM (≈ 32 µg/mL)
MIC (Candida albicans): 21.7 µM (≈ 32 µg/mL)
MIC (Salmonella typhimurium): 10.8 µM (≈ 16 µg/mL)
MIC (Cryptococcus neoformans): ≥ 43.3 µM
MIC (Streptococcus mutans): 21.7 µM (≈ 32 µg/mL)
MIC (Bacillus subtilis): 21.7 µM (≈ 32 µg/mL)
SMILES: CC(C)C[C@H](NC(=O)[C@H](CC(C)C)NC(=O)[C@H](CCCN=C(N)N)NC(=O)[C@H](Cc1cnc[nH]1)NC(=O)[C@@H](NC(=O)[C@H](CCCN=C(N)N)NC(=O)CNC(=O)[C@@H](NC(=O)[C@@H]1CCCN1C(=O)[C@@H](N)Cc1ccccc1)C(C)C)C(C)C)C(=O)N[C@@H](CCCN=C(N)N)C(=O)N[C@@H](CCCCN)C(=O)O [FPVGRVHRLLRK]

MIC (Enterobacter cloacae): 7.5 µM (≈ 14.5 µg/mL)
MIC (Streptococcus pyogenes): 3.75 µM (≈ 7.27 µg/mL)
MIC (Proteus mirabilis): 30 µM (≈ 58.2 µg/mL)
MIC (Saccharomyces cerevisiae): 3.75 µM (≈ 7.27 µg/mL)
MIC (Shigella boydii): 3.75 µM (≈ 7.27 µg/mL)
MIC (Streptococcus agalactiae): 3.75 µM (≈ 7.27 µg/mL)
MIC (Morganella morganii): 30 µM (≈ 58.2 µg/mL)
MIC [10]: 3.12 µM (≈ 6.05 µg/mL)
MIC [11]: 3.75 µM (≈ 7.27 µg/mL)
MIC [3]: 3.75 µM (≈ 7.27 µg/mL)
MIC [12]: 6.25 µM (≈ 12.1 µg/mL)
MIC [13]: 3.75 µM (≈ 7.27 µg/mL)
MIC [14]: 15 µM (≈ 29.1 µg/mL)
MIC (Serratia marcescens): 7.5 µM (≈ 14.5 µg/mL)
MIC [4]: 7.5 µM (≈ 14.5 µg/mL)
MIC [15]: 7.5 µM (≈ 14.5 µg/mL)
MIC (Enterococcus faecalis): 15 µM (≈ 29.1 µg/mL)
MIC [16]: 1.57 µM (≈ 3.05 µg/mL)
MIC [17]: 1.9 µM (≈ 3.69 µg/mL)
MIC (Acinetobacter baumannii): 3.75 µM (≈ 7.27 µg/mL)
MIC [18]: 3.12 µM (≈ 6.05 µg/mL)
MIC (Klebsiella pneumoniae): 3.75 µM (≈ 7.27 µg/mL)
SMILES: CC[C@H](C)[C@H](NC(=O)[C@H](CC(C)C)NC(=O)[C@@H]1CCCN1C(=O)[C@H](CC(C)C)NC(=O)[C@H](CCCCN)NC(=O)[C@H](CCCCN)NC(=O)[C@H](CC(C)C)NC(=O)[C@H](CC(C)C)NC(=O)[C@H](C)NC(=O)[C@@H](NC(=O)[C@H](Cc1ccccc1)NC(=O)CN)C(C)C)C(=O)N[C@@H](CC(C)C)C(=O)N[C@@H](CCCCN)C(=O)N[C@@H](Cc1cnc[nH]1)C(=O)N[C@@H](CC(C)C)C(=O)N[C@@H](Cc1cnc[nH]1)C(N)=O [GFVALLKKLPLILKHLH]

MIC [19]: > 40 µM
MIC [20]: ≥ 40 µM
MIC [3]: 10 µM (≈ 28.2 µg/mL)
MIC [4]: > 40 µM
MIC [21]: ≥ 40 µM
MIC [22]: 1.25 µM (≈ 3.53 µg/mL)
MIC [23]: 20 µM (≈ 56.4 µg/mL)
MIC [24]: 2.5 µM (≈ 7.05 µg/mL)
SMILES: CC[C@H](C)[C@H](NC(=O)[C@H](Cc1ccccc1)NC(=O)[C@H](CCCCN)NC(=O)[C@H](CC(C)C)NC(=O)[C@H](CCCCN)NC(=O)CNC(=O)[C@@H]1CCCN1C(=O)[C@H](CCCCN)NC(=O)[C@H](CC(C)C)NC(=O)[C@H](C)NC(=O)[C@@H](NC(=O)[C@H](Cc1cnc[nH]1)NC(=O)[C@@H]1CCCN1)C(C)C)C(=O)N[C@H](C(=O)N1CCC[C@H]1C(=O)N[C@@H](CO)C(=O)N1CCC[C@H]1C(=O)N[C@@H](CCCCN)C(=O)N[C@@H](CCCN=C(N)N)C(=O)N1CCC[C@H]1C(=O)N[C@H](C(=O)N[C@@H](CCCCN)C(=O)N[C@@H](CC(C)C)C(=O)N[C@@H](CC(C)C)C(=O)N[C@@H](CO)C(=O)NCC(=O)O)C(C)C)[C@@H](C)CC [PHVALKPGKLKFIIPSPKRPVKLLSG]
